Results taken from patent US20150224177A1 (priority 2014, published 2015).
Converted amounts (≈) assume the structure as drawn. Where two headings read alike, the source gives them in different places.

Key:
Burkholderia mallei = test: microbe, parasite or virus in culture; format: cell-based; conditions: for MIC: Burkholderia mallei
B. pseudomallei isolates = test: microbe, parasite or virus in culture; format: cell-based, Burkholderia pseudomallei
[1] = system: B. pseudomallei strains 1026b and MSHR 305; format: cell-based, Burkholderia pseudomallei
Bacillus anthracis = format: cell-based
Yersinia pestis = test: microbe, parasite or virus in culture; format: cell-based; conditions: for MIC: Yersinia pestis
[2] = read-out: MIC values (limit of detection) for OSCN^− with and without bLF
[3] = read-out: Minimal Inhibitory Concentration

N#CSO [OSCN^−, hypothiocyanite] was tested. Which “inhibition of growth, result in words” value (Burkholderia mallei) did it give?
The value was “very effective against both strains tested”.

What about the MIC (Burkholderia mallei; [2]) of the same compound?
The MIC was at most 25.9 µg/mL.

And the MIC (Burkholderia mallei; [3])?
The MIC was at most 25.9 µg/mL.

What about the “concentration of OSCN^− alone that inhibited all isolates” value (B. pseudomallei isolates) of the same compound?
Its value is “less than 63.3 μg/mL”.

What about the “inhibition of growth, overall result in words” value (B. pseudomallei isolates) of the same compound?
Its value is “effective in vitro to inhibit the growth”.

What about the MIC (B. pseudomallei isolates; Burkholderia pseudomallei, NCTC13392, read-out: Minimal Inhibitory Concentration) of the same compound?
The MIC was 48.7 to 61.2 µg/mL (≈ 649 to 815 µM).

And the “bacterial counts (limit of detection) through 6 h post inoculation” value [1]?
Its value is under 33 CFU/mL.

What about the “bactericidal effect, overall result in words” value [1] of the same compound?
The value was “substantial bactericidal effect”.

What about the “detectable CFUs from T2h to T6h” value [1] of the same compound?
Its value is “no detectable CFUs”.

And the “growth at T24h” value [1]?
The value was “no MSHR 305 growth was detected”.

What about the “kill curve: evolution of microbial load during time” value [1] of the same compound?
Its value is “immediate decrease of microbial load after 2 hours”.

And the “reduction at T24h as compared with the untreated controls” value [1]?
The value was 1.5 to 2 log10.

What about the “reduction at T24h compared with the untreated control” value [1] of the same compound?
Its value is about 2.5 log10.

And the “reduction of final bacterial concentration at T24h as compared with the untreated controls” value [1]?
Its value is “at least 1.5 log10”.

What about the “inhibition of growth, result in words” value (Bacillus anthracis) of the same compound?
Its value is “MICs at or below the detection limit”.

And the “inhibition of growth, result in words” value (Yersinia pestis)?
Its value is “very effective against both strains tested”.

And the MIC (Yersinia pestis; [2])?
Its MIC is at most 30.3 µg/mL.

What about the MIC (Yersinia pestis; [3]) of the same compound?
Its MIC is at most 30.3 µg/mL.
